# From patent US6841362B1, “Melanoma differentiation associated gene-7 promoter and uses thereof” (The Trustees of Columbia University in the City of New York, priority 2000, dated 2005)
# Tests used:
# [1] = tested on: mda-7 gene; test: Nuclear run-on assay of mda-7 transcription; type: cell-based, human; details: HO-1 cells, 24 h treatment, versus uninduced control
# Experimental: (FIG. 2A) Nuclear run-on assays using nuclei isolated from Control or 24 h after treatment with IFN-β, MEZ or IFN-β+MEZ, the same concentrations as indicated in FIG. 1. GAPDH was used as an internal control. In vitro transcription assays were performed as previously described (Jiang et al., 1993). […] GAPDH was used as an internal loading control.
# Transcription of the housekeeping gene, GAPDH served as an internal control.
# [2] = tested on: mda-7-ARE-3'-UTR; test: Luciferase-mda-7-ARE-3'UTR reporter assay; type: cell-based, human; details: HO-1 cells
# Description: Posttranscriptional regulation of Luciferase mRNA as a consequence of mda-7-3′ UTR addition at its 3′-end. The Luciferase expression plasmid having SV40 polyadenylation signal sequence was replaced with the 3′-UTR region (approximately 900 bp) of mda-7. […] (FIG. 3A) Mda-7 3′-UTR mediated destabilization of luciferase mRNA was computed as fold induction of luciferase enzyme activity, which is seen only when stable luciferase mRNA, is synthesized. […] (FIG. 3B) Kinetic analysis of luciferase activity (as fold-induction) of the mda-7 promoter-luciferase-ARE-3′-UTR construct as a function of time of treatment with IFN-β+MEZ. Luciferase assays were performed as described by Gopalkrishnan et al. (1999) and briefly in the legend to FIGS. 1A-1B.
# To examine the posttranscriptional regulation of mda-7 mRNA specifically during terminal differentiation of human melanoma cells, we constructed a Luciferease-mda-7-ARE-3′UTR plasmid under transcriptional control of either the FL-mda-7 promoter (FIG. 3) or the SV40 large T-antigen promoter. These plasmids were co-transfected into HO-1 cells and treated with differentiation inducers.
# [3] = tested on: FL-mda-7 promoter; test: FL-mda-7 promoter luciferase reporter assay, transient transfection; type: cell-based, human; details: HO-1 and MeWo cells, 48 hr treatment, relative to uninduced; IFN-β 2000 units/ml, MEZ 10 ng/ml
# Experimental: The effect of differentiation inducer drug treatment on full length mda-7 promoter activity. Fold induction of the FL-mda-7 promoter relative to the pGL3-Basic plasmid with or without differentiation inducer drug treatment in HO-1 (FIG. 1A) or MeWo (FIG. 1B) human melanoma cells. Luciferase assays were performed as previously described (Gopalkrishnan et al., 1999). In brief, the promoter-containing plasmids were transiently transfected into the different cell types using Superfect^R (Qiagen) according to the manufacturer's protocol. The cells were treated with differentiation inducers (IFN-β, 2000 units/ml; MEZ, 10 ng/ml; or IFN-β+MEZ, 2000 units/ml+10 ng/ml) for 48 h following transfection and assayed for luciferase activity using the Luc+Assat Kit (Promega). The SV40-p-Galactosidase plasmid was co-transfected with the luciferase constructs and used to normalize for variations in transfection efficiencies between experiments. […]
# The presumptive promoter fragment was assayed for promoter activity using a heterologous gene reporter system (pGL3-Basic, luciferase assay system, Promega). […] The transfection efficiency was determined by cotransfection with RSV-β-galactosidase (Tropics β-Gal assay kit) and the relative luciferase activity was computed after correction for variations in transfection efficiencies.
# [4] = tested on: C/EBP-β/LAP; test: Western blotting of C/EBP-β/LAP protein in whole cell lysates; type: cell-based, human; details: HO-1 cells, 24 h treatment
# Experimental: (§1) FIGS. 8A-8C. Protein expression pattern of the transcription factors cJun/AP-1 and C/EBP-β and their ability to transactivat the mda-7 promoter. [FIG. 8A] Whole cell lysates from HO-1 control cells (C) and those treated with IFN-β (I), MEZ (M), IFN-β+MEZ (I+M) or TPA were resolved on a 4-20% SDS-PAGE gel and transblotted onto nitrocellulose filters. Immobilized proteins were then analyzed by Western blotting using commercially available cJun/AP-1 and C/EBP-β specific antibodies. […] Equal protein loading was determined by Coomassie blue staining of a parallel gel. [FIG. 8B] […]
# (§2) Electrophoresis and immunoblotting. Equal amounts of whole cell proteins were analyzed by sodium dodecylsulfate-polyacrylamide gel electrophoresis (SDS-PAGE, 4-20% gradient gel; Novex) and electrotransferred onto ECL grade nitrocellulose (Amersham) as described previously (24). […]
# (§3) AP-1 and C/EBP families of transcription factors are responsible for mda-7 promoter activation during human melanoma differentiation. […] Western blot analyses of whole cell lysates (equal protein loading was verified by Coomassie blue staining of a parallel gel, data not shown) from uninduced HO1 cells and cultures treated for 24 h with IFN-β, MEZ, IFN-β+MEZ or TPA were analyzed using anti-cJun/AP-1, anti-C/EBP-α or anti-C/EBP-β antibodies. […]
# [5] = tested on: mda-7 mRNA; test: Northern blotting of mda-7 message; type: cell-based, human; details: HO-1 cells, 24 h treatment
# Description: FIGS. 5A-5B. Message and protein expression analyses of mda-7 during melanoma terminal differentiation. (FIG. 5A) Northern blotting analysis of mda-7 message expression. Total RNA was isolated from HO-1 cells that were uninduced (C) or treated with IFN-β (I), MEZ (M) or IFN-β+MEZ (I+M) and analyzed by Northern blotting. 28S RNA was used as a loading control. Mda-7 message was detected using a random primed [^32P]-labeled mda-7 cDNA probe (18). (FIG. 5B) Indirect immunofluorescence visualization of MDA-7 protein subcellular localization. Both uninduced HO-i cells (Control; A and S) and terminally differentiated (48 h IFN-β+MEZ treated; C and D) were immuno-labeled using anti-MDA-7 specific monoclonal antibody. Anti-mouse secondary antibodies conjugated with Rhodamine enabled visualization of MDA-7 protein localization (A and C) and the DNA specific dye, DAPI was used to stain nuclei (B and D). With the exception of a cell undergoing mitosis no other cells reveal MDA-7 staining in control cultures (A and B). Terminally differentiated cells in (C) and (D) show strong punctate MDA-7 staining within the nucleus (See enlargement below (C) and (D) of a single nucleus). The arrow points to the punctate bodies to which MDA-7 localizes in the nucleus and their coincidence with DAPI bright staining regions.
# Nucleic acid analysed. […]
# [6] = tested on: HO-1 cells; details: cited from earlier work
# [7] = tested on: mda-7 mRNA; test: RT-PCR followed by Southern blotting of mda-7 mRNA; type: cell-based, human; details: HO-1 cells, compared to IFN-β+MEZ treated samples
# Experimental: (FIG. 2B) Mda-7 message expression detected by Northern blotting and RT-PCR followed by Southern blotting. Total RNA from control (FIG. 2C) HO-1 cells and cells treated with IFN-β (I), MEZ (M) or IFN-β+MEZ (I+M) were analyzed by Northern blotting or RT-PCR/Southern using radiolabeled mda-7 cDNA as a probe as previously described (Jiang et al., 1993, 1995a; Kang et al., 1998a). GAPDH was used as an internal loading control.
# To determine the possible presence of trace amounts of mda-7 mRNA in response to differentiation inducer treatment (IFN-β) and in the absence of treatment, a more sensitive method of message detection was employed, i.e., RT-PCR followed by Southern blotting.
# Nucleic acid analysed. Total cytoplasmic RNA was prepared by the guanidinium-HCL extraction method followed by Northern blotting or RT-PCR analysis using previously published protocols (12, 18, 22). For Northern blots, 15 mg of RNA was denatured with glyoxal/DMSO, electrophoresed on 1% agarose gels, transferred to nylon membranes and hybridized with ^32P-dCTP labeled cDNA probes.
# [8] = tested on: cJun/AP-1; test: Western blotting of cJun/AP-1 protein in whole cell lysates; type: cell-based, human; details: HO-1 cells, 24 h treatment, compared to uninduced controls
# Experimental: as §1, §2, §3
# [9] = tested on: p21/Waf1/Cip1/mda-6; test: Effect of cycloheximide on p21/mda-6 message, Northern blotting; type: cell-based, human; details: HO-1 cells, cycloheximide 10 μg/ml for 3 h
# Experimental: (§4) FIGS. 4A-4B. Effect of actinomycin D and cycloheximide on th half-life and stability of the mda-7 message. […] Northern blotting analyses were performed on total RNA isolated from control (C)HO-1 or cells treated with IFN-β (I), MEZ (M) or IFN-β+MEZ (I+M), at the same concentrations as in FIG. 1. Twenty-four h after exposure to the inducing agent(s), acitnomycin D (Act.D, 5 μg/ml) was added (+Act.D) for 30 minutes (30′) or one h (1′). Mda-7 expression was detected using a radiolabeled mda-7 cDNA probe as previously described (Jiang et al., 1995a). rRNA visualized by ethidium bromide was used as a loading control. (FIG. 4B) Effect of cycloheximide treatment on mda-7 mRNA stability relative to p21/mda-6 Untreated control (C)HO-1 cells or cells treated for 24 h with IFN-β (I), MEZ (M) or IFN-β+MEZ at the same concentrations as in FIGS. 1A-1B. After 24 h induction, cells were treated with or without cycloheximide (10 μg/ml) for 3 h and total RNA was isolated and analyzed by Northern blotting. Mda-7 expression was detected using a radiolabeled mda-7 cDNA probe (Jiang et al., 1995a). The blot was allowed to decay for 3 months, and then reprobed using a radiolabeled probe against a p21/mda-6 cDNA (Jiang et al., 1995b). rRNA visualized by ethidium bromide was used as a loading control. […]
# [10] = tested on: mda-7 mRNA; test: Effect of cycloheximide on mda-7 mRNA stability, Northern blotting; type: cell-based, human; details: MEZ treated HO-1 cells, cycloheximide 10 μg/ml for 3 h; lesser extent in control and IFN-β treated samples
# Experimental: as §4
# [11] = tested on: mda-7 promoter; test: mda-7 promoter activity on IL-6 treatment; type: cell-based; details: cells treated with IL-6, unpublished data
# Experimental: It appears that C/EBP-B/LAP binding sites at a distance from the TATA element are responsible for mda-7 expression in terminally differentiated human melanoma cells. Another line of evidence supporting the involvement of the C/EBP gene family in melanoma terminal differentiation is apparent from increased levels of C/EBP-B/LAP protein in HO-1 cells as early as 24 h after treatment with IFN-β+MEZ when compared to cells treated with IFN-β, MEZ or TPA. The transcription factor C/EBP is a heat-stable, sequence-specific DNA-binding protein first purified from rat liver nuclei (39). C/EBP regulates gene expression in a variety of tissues including liver, adipose, lung and intestine (40). This transcription factor appears to function exclusively in differentiated and growth-arrested cells (40). […] It is the ratio of LIP/LAP that is important in C/EBP-mediated gene expression. In the case of terminally differentiated HO-1 melanoma cells, we were unable to detect any LIP protein. The present studies provide evidence that the C/EBP gene family members, C/EBP-B/LAP in particular, play a major role during melanoma terminal differentiation. C/EBP-a and -B can both directly induce the mda-7 promoter as shown by ectopic expression analyses. […]
compound,measurement,setting,value
"C=C(C)[C@@]12O[C@@]3(c4ccccc4)O[C@@H]1[C@@H]1[C@@H]4O[C@]4(CO)[C@@H](O)[C@]4(O)C(=O)C(C)=C[C@H]4[C@@]1(O3)[C@H](C)[C@H]2OC(=O)/C=C/C=C/c1ccccc1 [MEZ, mezerein]",rate of mda-7 transcription,[1],the same
same,luciferase enzyme activity of Luciferase-mda-7-ARE-3'UTR construct,[2],minimal
same,activity of the FL-mda-7 promoter (luciferase),[3],only small changes
same,level of C/EBP-β/LAP protein,[4],approximately 3 fold
same,mda-7 message by Northern blotting,[5],Quantitatively less
same,growth suppression and differentiation,[6],reversible
same,mda-7 mRNA by RT-PCR,[7],lower levels
CCCCCCCCCCCCCC(=O)O[C@@H]1[C@@H](C)[C@@]2(O)[C@@H](C=C(CO)C[C@]3(O)C(=O)C(C)=C[C@@H]23)[C@@H]2C(C)(C)[C@]12OC(C)=O [TPA],level of cJun/AP-1 protein,[8],only marginally increased
C[C@@H]1C[C@@H]([C@H](O)CC2CC(=O)NC(=O)C2)C(=O)[C@@H](C)C1 [cycloheximide],p21/mda-6 message accumulation,[9],does not show message accumulation
same,accumulation of mda-7 mRNA,[10],visibly increased
IL-6: potent inducer of NF-IL6,mda-7 promoter activity,[11],induced
